Source: ChEMBL document CHEMBL5532715, “Rogersonins C-F, 9H-Imidazo[2,1-i]purine-Incorporating Adenine-Polyketide Hybrids from an Ophiocordyceps-Associated Clonostachys rogersoniana” (2024)
The source made the active and inactive calls. No cut-off for these calls is given here.

What was measured:
[1] = Downregulation of cell surface PD-L1 expression in human MDA-MB-231 cells assessed as mean fluorescence intensity at […] incubated for 24 hrs by phycoerythrin staining based flow cytometry analysis (reference value: 1156); assay type: functional
[2] = Downregulation of cell surface PD-L1 expression in human MDA-MB-231 cells assessed as mean fluorescence intensity at 10 uM incubated for 24 hrs by phycoerythrin staining based flow cytometry analysis (reference value: 1156); assay type: functional
A549 [3] = test: Antiproliferative activity against human A549 cells incubated for 72 hrs by MTT assay; assay type: functional, cell-based
[4] = Downregulation of cell surface PD-L1 protein expression in human A549 cells assessed as test to control ratio at 5 uM incubated for 24 hrs by Western blot analysis; assay type: functional
A549 [5] = test: Effect on CD274 mRNA expression in human A549 cells at 5 to 10 uM hrs by real-time quantitative-PCR analysis; assay type: functional, cell-based; conditions: dose 5-10 µM
[6] = Downregulation of cell surface PD-L1 protein expression in human MDA-MB-231 cells assessed as test to control ratio at 5 uM incubated for 24 hrs by Western blot analysis; assay type: functional
[7] = Downregulation of cell surface PD-L1 protein expression in human MDA-MB-231 cells assessed as test to control ratio at 10 uM incubated for 24 hrs by Western blot analysis; assay type: functional
MCF7 = test: Antiproliferative activity against human MCF7 cells incubated for 72 hrs by MTT assay; assay type: functional, cell-based
MDA-MB-231 [8] = test: Effect on CD274 mRNA expression in human MDA-MB-231 cells at 5 to 10 uM hrs by real-time quantitative-PCR analysis; assay type: functional, cell-based; conditions: dose 5-10 µM
[9] = Downregulation of cell surface PD-L1 expression in human MDA-MB-231 cells assessed as mean fluorescence intensity at 5 uM incubated for 24 hrs by phycoerythrin staining based flow cytometry analysis (reference value: 1156); assay type: functional
[10] = Downregulation of cell surface PD-L1 protein expression in human A549 cells assessed as test to control ratio at 10 uM incubated for 24 hrs by Western blot analysis; assay type: functional
MDA-MB-231 [11] = test: Antiproliferative activity against human MDA-MB-231 cells incubated for 72 hrs by MTT assay; assay type: functional, cell-based

Structure (SMILES) | Flu intensity [1] | Flu intensity [2] | Activity (A549 [3]) | T/C [4] | Activity (A549 [5]) | T/C [6] | T/C [7] | Activity (MCF7) | Activity (MDA-MB-231 [8]) | Flu intensity [9] | T/C [10] | Activity (MDA-MB-231 [11])
CN(C)C(=N)NC(=N)N [METFORMIN] | 1081 |  |  |  |  |  |  |  |  |  |  | 
C[C@@H]1OC(=O)/C=C/[C@@H](O)CC[C@H](C)OC(=O)Cc2c1nc1c3ncn([C@@H]4O[C@H](CO)[C@@H](O)[C@H]4O)c3ncn21 |  | 820 | inactive | 0.6 | inactive | 0.89 | 0.54 | inactive | inactive | 897 | 0.32 | inactive
CO[C@@H]1[C@H](O)[C@@H](CO)O[C@H]1n1cnc2c1ncn1c3c(nc21)[C@H](C)OC(=O)/C=C/[C@@H](O)CC[C@H](C)OC(=O)C3 |  |  | inactive |  |  |  |  | inactive |  |  |  | inactive
C[C@@H]1OC(=O)/C=C/[C@@H](O)CC[C@H](C)OC(=O)[C@H](n2cnc3c2ncn2c4c(nc32)[C@H](C)OC(=O)/C=C/[C@@H](O)CC[C@H](C)OC(=O)C4)CC1=O |  |  | inactive |  |  |  |  | inactive |  |  |  | inactive
C[C@@H]1OC(=O)/C=C/[C@@H](O)CC[C@H](C)OC(=O)[C@H](n2cnc3ncn4c5c(nc4c32)[C@H](C)OC(=O)/C=C/[C@@H](O)CC[C@H](C)OC(=O)C5)CC1=O |  |  | inactive |  |  |  |  | inactive |  |  |  | inactive
